Laboratory results: patent US9714231B2, “Pyrrolidine GPR40 modulators” (BRISTOL-MYERS SQUIBB COMPANY, priority 2012, dated 2017)
Where a name gives a salt, the structure may show the parent alone.

Molecular target: human GPR40 (Homo sapiens, UniProt O14842)
Assay: FDSS-based intracellular calcium assay (Human GRP40 in vitro assay)
Format: cell-based
Design: 3xFLAG; expressed in transfected cells
Settings: cells expressing GPR40, intracellular Ca2+ response, FDSS reader; read-out: hGPR40 EC50
Procedure, shortened: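 GPR40-expressing cells, plated overnight in serum-free phenol red-free DMEM, loaded with Fluo-3 in HBSS with 1.7 mM probenecid for 30 min at 37° C. Compounds in DMSO, diluted in assay buffer, added as 3× solutions; intracellular Ca^2+ response read on FDSS.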

Sequence of human GPR40 (O14842 whole entry): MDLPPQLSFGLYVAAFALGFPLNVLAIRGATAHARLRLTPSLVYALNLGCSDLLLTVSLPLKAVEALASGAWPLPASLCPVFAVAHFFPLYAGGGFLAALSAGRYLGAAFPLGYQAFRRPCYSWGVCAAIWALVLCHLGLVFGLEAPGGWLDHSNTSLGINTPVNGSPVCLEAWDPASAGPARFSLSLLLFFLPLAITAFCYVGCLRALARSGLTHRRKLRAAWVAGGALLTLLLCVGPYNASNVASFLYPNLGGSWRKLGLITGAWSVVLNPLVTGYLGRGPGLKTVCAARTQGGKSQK

Structure (SMILES)	EC50 [µM]
COc1cc(N2CCC(Oc3ccc(N4C[C@H](C(F)(F)F)C[C@@H]4CC(=O)O)cc3)C(C)C2)c(Cl)cn1 (single isomer, unassigned) [Example 27, Isomer 2, HCl]	0.13
COc1ccc(F)c(N2CCC(Oc3ccc(N4CC(F)(F)C[C@@H]4CC(=O)O)cc3)C(C)C2)c1 (single isomer, unassigned) [Example 53, Isomer 1, HCl]	0.41
COc1cc(N2CCC(Oc3ccc(N4C[C@H](OC)C[C@@H]4CC(=O)O)cc3)C(C)C2)c(Cl)cn1 (single isomer, unassigned) [Example 84, Isomer 1, TFA]	0.73
CCOc1ccc(F)c(N2CCC(Oc3ccc(N4C[C@H](C(F)(F)F)C[C@@H]4CC(=O)O)cc3)C(Cc3ccccc3)C2)c1 (single isomer, unassigned) [Example 36, Isomer 1, HCl]	6
CCOc1ccc(F)c(N2CCC(Oc3ccc(N4C[C@H](Oc5ccccc5Cl)C[C@@H]4CC(=O)O)cc3)CC2)c1 [Example 79, 2-((2R,4R)-4-(2-Chlorophenoxy)-1-(4-(1-(5-ethoxy-2-fluorophenyl)piperidin-4-yloxy)phenyl)pyrrolidin-2-yl)acetic acid]	0.74
COc1cc(N2CCC(Oc3ccc(N4C[C@H](OC)[C@@H](C)[C@@H]4CC(=O)O)cn3)CC2)c(C2CCCC2(C)C)cn1 (single isomer, unassigned) [Example 151, Isomer 2, HCl]	0.14
COc1ccc(F)c(N2CCC(Oc3ccc(N4CC(C(F)(F)F)C(C)C4CC(=O)O)cc3)CC2)c1 (single isomer, unassigned) [Example 26, Isomer 2, 2-((2,3-trans,3,4-trans)-1-(4-((1-(2-Fluoro-5-methoxyphenyl)piperidin-4-yl)oxy)phenyl)-3-methyl-4-(trifluoromethyl)pyrrolidin-2-yl)acetic acid, HCl]	8.4

The remaining lines, values ahead:

EC50 [µM]	Structure (SMILES)
0.17	COc1cc(N2CCC(Oc3ccc(N4C[C@H](OC)[C@@H](F)[C@@H]4CC(=O)O)cc3)C(C)C2)c(Cl)cn1 (single isomer, unassigned) [Example 147, Isomer 1, HCl]
0.29	COc1ccc(F)c(N2CCC(Oc3ccc(N4C[C@H](OC)C[C@@H]4CC(=O)O)cc3F)CC2)c1 [Example 15, 2-((2R,4R)-1-(3-Fluoro-4-((1-(2-fluoro-5-methoxyphenyl)piperidin-4-yl)oxy)phenyl)-4-methoxypyrrolidin-2-yl)acetic acid, HCl]
4.6	CCOc1ccc(F)c(N2CCC(Oc3ccc(N4C[C@H](N(C)S(=O)(=O)c5ccccc5)C[C@@H]4CC(=O)O)cc3)CC2)c1 [Example 80, 2-((2R,4R)-1-(4-(1-(5-Ethoxy-2-fluorophenyl)piperidin-4-yloxy)phenyl)-4-(N-methylphenylsulfonamido)pyrrolidin-2-yl)acetic acid, TFA]
4.7	COc1cc(N2CCC(Oc3ccc(N4C[C@H](OC)CC4CC(=O)O)c(F)c3F)C(C)C2)c(Cl)cn1 (single isomer, unassigned) [Example 141, Isomer 3]
0.045	COc1cc(N2CCC(Oc3ncc(N4C[C@H](OC)[C@@H](C)[C@@H]4CC(=O)O)cc3OC(C)C)C(C)C2)c(Cl)cn1 (stereo partly drawn) [Example 167, 2-((2S,3S,4R)-1-(6-(((3,4-trans)-1-(5-Chloro-2-methoxypyridin-4-yl)-3-methylpiperidin-4-yl)oxy)-5-isopropoxypyridin-3-yl)-4-methoxy-3-methylpyrrolidin-2-yl)acetic acid]
0.063	CCCCCO[C@H]1CN(c2ccc(OC3CCN(c4cc(OC)ncc4Cl)CC3C)cc2)[C@@H](CC(=O)O)[C@@H]1C (stereo partly drawn) [Example 162, 2-((2S,3S,4R)-1-(4-(((3,4-trans)-1-(5-Chloro-2-methoxypyridin-4-yl)-3-methylpiperidin-4-yl)oxy)phenyl)-3-methyl-4-(pentyloxy)pyrrolidin-2-yl)acetic acid, TFA]
0.12	COc1ccc(C2CCCC2(C)C)c(N2CCC(Oc3ccc(N4C[C@H](OC)C[C@@H]4CC(=O)O)cc3)CC2)c1 (single isomer, unassigned) [Example 65, Isomer 2]
